Columns and labels:
Panx1 [1] = molecular target: T1, Panx1 (Mus musculus, UniProt Q9JIP4); assay: Whole-cell patch clamp of CBX-sensitive Panx1 current in HEK293 cells cotransfected with mPanx1 and α1DAR; format: cell-based; details: CBX 50 μmol/L after phenylephrine, +80 mV
T1 construct: we progressively substituted amino acids in this region of full-length Panx1 with alanine residues; HA; expressed in transfected cells; host or cells: HEK293T cells, transient co-transfection with alpha1DAR plasmid (Origene, NM_013460, C-terminal Myc-DDK)
T1 sequence (Q9JIP4 whole entry): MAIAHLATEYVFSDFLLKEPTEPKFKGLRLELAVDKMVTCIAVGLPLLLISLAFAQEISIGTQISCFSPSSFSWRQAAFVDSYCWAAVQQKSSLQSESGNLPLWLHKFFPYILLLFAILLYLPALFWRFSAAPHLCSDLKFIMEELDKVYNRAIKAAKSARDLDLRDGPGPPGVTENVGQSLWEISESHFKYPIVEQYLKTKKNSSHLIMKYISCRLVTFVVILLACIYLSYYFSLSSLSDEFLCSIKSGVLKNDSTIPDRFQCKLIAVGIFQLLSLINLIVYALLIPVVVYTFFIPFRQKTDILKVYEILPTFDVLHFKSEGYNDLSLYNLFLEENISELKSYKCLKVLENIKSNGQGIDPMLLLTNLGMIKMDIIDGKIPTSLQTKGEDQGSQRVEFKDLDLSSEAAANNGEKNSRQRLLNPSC
Method: Human Embryonic Kidney (HEK) 293T cells were cultured as previously described, and were used until passage 20. For ATP measurements, 50,000 cells/well were seeded in 24 well plates pre-coated with 0.01% poly-L-lysine, and transfected using Lipofectamine 2000 (Invitrogen) according to the manufacturer protocol. Briefly, 0.4 μg of α1DAR and 0.4 μg of Panx1^WT, Panx1^KYP>AAA, Panx1^IVEQ>AAA or Panx1^YLK>AAA plasmids were added to each well along with 2 μl of Lipofectamine 2000. For electrophysiology measurements, 4 μg of α1DAR plasmid, 2 μg of Panx1^WT, Panx1^KYP>AAA, Panx1^IVEQ>AAA or Panx1^YLK>AAA plasmids, and 0.5 μg of GFP plasmid were mixed with 10 μl Lipofectamine 2000 and added to a well of 6-well plate seeded with ˜70% confluent HEK cells. Cells were split the next morning and plated onto a glass coverslip for recording. ATP measurements and whole-cell recordings were performed 24 hours after transfection.
Whole-cell recordings were obtained at room temperature from transiently transfected HEK293T cells using Axopatch 200B amplifier (Molecular Devices) in a bath solution composed of 140 mmol/L NaCl, 3 mmol/L KCl, 2 mmol/L MgCl2, 2 mmol/L CaCl2, 10 mmol/L HEPES and 10 mmol/L glucose (pH 7.3). Patch pipettes (3-5 MΩ) were filled with a Cs-/TEA-based internal solution, as previously described. Ramp voltage commands with 7-s intervals were applied using pCLAMP software and Digidata1322A digitizer (Molecular Devices). Peak whole-cell currents were determined at +80 mV and normalized to cell capacitance. Current mediated by Panx1 was defined by its sensitivity to carbenoxolone (CBX). In this system, no CBX-sensitive current is observed in HEK293T cells without Panx1. Basal current was recorded for approximately two minutes and PE (20 μmol/L) was applied to the bath solution, which was followed by addition of CBX (50 μmol/L). When indicated, cells were pre-incubated with bath solution containing IL2 peptide or its scrambled version at room temperature for 40-60 minutes prior to the experiment. The effect of PE on Panx1 current was quantified relative to CBX-sensitive basal current, and data was expressed as percent increase in CBX-sensitive current. All experiments were performed on 8 to 22 cells for each conditions tested. Data were analyzed using a Kruskall Wallis test (non-parametric one-way ANOVA) followed by Dunn's post-hoc test.
To test if α1AR stimulation triggered opening of the Panx1 channel and the importance of the region represented by the IL2 peptide, we cotransfected mPanx1 and α1DAR into HEK293 cells and monitored whole-cell currents by patch clamp electrophysiology.

Panx1 [2] = molecular target: T2, Panx1 (Homo sapiens, UniProt Q96RD7); details: cited from earlier work
Target sequence in this assay (Q96RD7 whole entry): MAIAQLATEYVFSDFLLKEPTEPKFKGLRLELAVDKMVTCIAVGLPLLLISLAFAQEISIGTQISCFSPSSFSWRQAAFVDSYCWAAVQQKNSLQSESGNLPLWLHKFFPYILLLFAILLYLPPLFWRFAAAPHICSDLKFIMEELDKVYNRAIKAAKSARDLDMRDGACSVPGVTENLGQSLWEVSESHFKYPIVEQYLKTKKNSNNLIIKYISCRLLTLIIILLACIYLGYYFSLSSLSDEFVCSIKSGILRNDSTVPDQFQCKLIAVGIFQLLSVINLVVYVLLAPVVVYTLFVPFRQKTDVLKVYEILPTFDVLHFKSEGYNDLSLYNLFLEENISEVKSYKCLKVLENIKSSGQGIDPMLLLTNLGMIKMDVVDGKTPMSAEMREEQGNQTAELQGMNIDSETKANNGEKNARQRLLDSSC

[3] = tested on: anaesthetized guinea pigs; details: injected into anaesthetized guinea pigs; cited from earlier work
Cre/Panx1 mice = assay: Blood pressure by radiotelemetry before and after tamoxifen in the conditional KO mouse model; format: in vivo
Method: Blood pressure was measured using radiotelemetry units (Data Sciences International, DSI) implanted in C57Bl/6, Cre^−/Panx1^F1, Cre^−/Panx1^WT, Cre^+/Panx1^WT, and Cre^+/Panx1^F1 mice. The catheter of a radiotelemetry unit (TA11PA-C10, DSI) was implanted in the mouse left carotid artery under isoflurane anesthesia, and the catheter was tunneled trough the radiotransmitter placed in a subcutaneous pouch along the right flank of the mouse, as previously described. After implantation, mice were allowed to recover for seven days.
For experiments on the conditional KO mouse model: blood pressure was measured using Dataquest A.R.T. 20 software (DSI) for five days before proceeding to tamoxifen injections at 1 mg/kg for ten days. Blood pressure was recorded for another five days 24 hours after the last tamoxifen injection. The change in mean arterial pressure (ΔMAP) was calculated by subtracting the average MAP measured for five days before tamoxifen injections to the mean arterial pressure measured for five days after the tamoxifen injections. […]
Based on the central role of α1AR signaling in blood pressure homeostasis, we evaluated the effect of Panx1 deletion on systemic blood pressure. Blood pressure was measured using radiotelemetry units as previously described by us. Blood pressure was measured on the conditional KO mouse model for five days before proceeding to tamoxifen injections, and for another five days 24 hours after the last tamoxifen injection. The change in mean arterial pressure (ΔMAP) was calculated by subtracting the average MAP measured for five days before tamoxifen injections to the MAP measured for five days after the tamoxifen injections. Day MAP was measured during the light cycle (06:00-18:00), while night MAP was measured during the nocturnal cycle (18:00 to 06:00). For experiments on C57Bl/6, basal blood pressure was measured continuously for 30 minutes before intraperitoneal injection of saline solution or peptide, and for 1.5 hours after the injection. […]

[4] = tested on: thoracodorsal arteries (TDA); assay: Pressure myography: agonist-induced constriction of pressurized TDAs from C57Bl/6 mice with pannexin inhibitors or Panx1 mimetic peptides; format: cell-based, mouse
Method: The contractile responses of pressurized thoracodorsal arteries (TDA) were measured as previously described. Briefly, TDA were isolated and placed in cold Krebs-HEPES until cannulation in a pressure arteriograph (Danish MyoTechnology). After a 30 minute equilibration period, cumulative concentrations of contractile agonists were applied to the TDA pressurized at 80 mmHg, and the vessel was visualized with an Olympus IX-71 microscope attached to a Hamamatsu EM-CCD camera coupled to Slidebook imaging software. […] Lastly, maximal diameter was measured at the end of each experiment in calcium-free Krebs-HEPES supplemented with EGTA (1 mmol/L) and sodium nitroprusside (10 μmol/L). In cases where the vessels were not constricting to the contractile agonist, their viability was assessed by applying 40 mM KCl and only TDA reaching 30% of the maximal diameter were considered for analysis. The contractile responses, as well as the basal tone, are expressed as a percentage of the maximal diameter.
Using pressure arteriography on TDA dissected from C57Bl/6 mice (as described; and aortic ring contraction, as described), we measured the effect of pannexin inhibitors, probenecid and 10Panx1, on the contractile response upon stimulation with different vasoconstrictors: phenylephrine (FIG. 1A), noradrenaline (also called norepinephrine) (FIG. 1B), serotonin (also known as 5-HT) (FIG. 1C) and endothelin-1 (FIG. 1D). […] In contrast, ^10Panx1 and probenecid had no effect on contraction of TDA measured in response to cumulative concentrations of serotonin or endothelin-1 (FIGS. 1C-D; Table 1).
To determine the region of Panx1 necessary for channel activation in response to α1AR stimulation, we produced short peptides derived from the intracellular regions of the Panx1 channel. We generated two peptides mimicking unique mouse Panx1 (mPanx1) sequences in the first intracellular loop (IL1 and IL2) and two peptides mimicking unique mPanx1 sequences in the C-terminal region, one in second intracellular loop (CT1) and one in the C-terminal tail (CT2) (FIG. 4A scissors indicate caspase 3 cleavage site; Table 3). All peptides also contained a TAT sequence to facilitate entry into cells and we verified the intracellular localization of each peptide by immunofluorescence detection of the TAT sequence in TDAs pre-incubated with each peptide (FIG. 7A). We tested the effect of each peptide on phenylephrine-induced contractile responses in pressurized TDAs from C57Bl/6 mice (FIGS. 4B-E). […] Note that these differences in effects of phenylephrine were similar in magnitude to those observed in arteries from SMC-specific Panx1-knockout mice and littermate controls (FIG. 2C, Table 2).

Panx1 [5] = molecular target: T2, Panx1; details: neurons; cited from earlier work
Target sequence in this assay (Q96RD7 whole entry, species assumed): as the sequence (Q96RD7 whole entry) above

CC1(C)[C@@H](OC(=O)CCC(=O)O)CC[C@]2(C)[C@H]3C(=O)C=C4[C@@H]5C[C@@](C)(C(=O)O)CC[C@]5(C)CC[C@@]4(C)[C@]3(C)CC[C@@H]12 [CBX, carbenoxolone]
effect on Panx1 whole-cell current (Panx1 [1]): abolished the current

N[C@@H]1[C@H]2CN(c3nc4c(cc3F)c(=O)c(C(=O)O)cn4-c3ccc(F)cc3F)C[C@@H]12 [Trovafloxacin]
inhibition of Panx1 channels (Panx1 [2]): can also inhibit Panx1 channels

OC(c1cc(C(F)(F)F)nc2c(C(F)(F)F)cccc12)C1CCCCN1 (stereo not drawn) [mefloquine]
effect on blood pressure [3]: induces hypotension

CC/C(=C(\c1ccccc1)c1ccc(OCCN(C)C)cc1)c1ccccc1 [tamoxifen]
heart rate (Cre/Panx1 mice; Cre^+/Panx1^Fl mice, after tamoxifen): 549±7 beats per min
decrease of mean arterial blood pressure (Cre/Panx1 mice; Cre^+/Panx1^Fl mice, tamoxifen 1 mg/kg i.p. for ten days (induces SMC Panx1 deletion)): 4.6±2.1 mmHg
change of mean arterial blood pressure (Cre/Panx1 mice; mice retaining Panx1 (Cre^−/Panx1^WT, Cre^−/Panx1^Fl, Cre^+/Panx1^WT)): no evident changes

mPanx1 305-RRLKVYEILPTFDVLH-318 (SEQ ID NO: 5) linked with TAT; previously published to inhibit NMDA-mediated Panx1 opening [CT1]
effect on phenylephrine-induced constriction of pressurized TDAs ([4]; TAT-linked peptides, C57Bl/6 TDAs): did not affect
EMAX of phenylephrine for TDA constriction ([4]; in presence of the named peptide): 50.7 ± 9.08 percentage of maximal diameter
effect on NMDA-induced Panx1 activation (Panx1 [5]): prevent
